Measurements reported in PMC8621570, “Mechanistic Studies of Antibiotic Adjuvants Reducing Kidney’s Bacterial Loads upon Systemic Monotherapy” (Pharmaceutics, 2021).

Assays:
Klebsiella pneumoniae = assay: Sensitization to rifampin, checkerboard method; assay type: cell-based; conditions: adjuvant at 8 µg/mL (10 µM for C14(ω5)OOc10O), Kp, LB
Protocol: (§1) Bacterial sensitization: Sensitization to antibiotics was determined using the checkerboard method in presence of sub-MIC OAC (2.5, 5, and 10 μM), as described. The synergistic effect of the combinations was expressed in terms of the Sensitization Factor (SF), where SF = (MIC antibiotic alone)/(MIC antibiotic upon combination). Data were obtained from three independent assays performed in duplicate.
(§2) Figure 4 Hydrophobicity dependence of antibiotics potentiation by lipopeptide analogs. Sensitization of GNB to rifampin and erythromycin (upper and lower panel, respectively) was assessed by MIC experiments performed in LB medium, in presence or absence of an OAC analog whose A2 position was gradually shortened (from c10 to c6). Pseudomonas aeruginosa 27853 (Pa, blue), Klebsiella pneumoniae 1287 (Kp, green), Escherichia coli 25922 (Ec, red), and Acinetobacter baumannii 19606 (Ab, black).

[1] = system: Acinetobacter baumannii 19606; assay: Sensitization to rifampin, checkerboard method; assay type: cell-based; conditions: adjuvant at 8 µg/mL (10 µM for C14(ω5)OOc10O), Ab 19606, LB
Protocol: as §1, §2

[2] = system: Pseudomonas aeruginosa 27853; assay: Sensitization to rifampin, checkerboard method; assay type: cell-based; conditions: adjuvant at 8 µg/mL (10 µM for C14(ω5)OOc10O), Pa 27853, LB
Protocol: as §1, §2

Escherichia coli 25922 = assay: Sensitization to rifampin, checkerboard method; assay type: cell-based; conditions: adjuvant at 8 µg/mL (10 µM for C14(ω5)OOc10O), Ec 25922, LB
Protocol: as §1, §2

P. aeruginosa 27853 = assay: Excisional skin wound infection model, topical treatment; assay type: in vivo, mouse; conditions: 4 h treatment, mice n = 3 per group
Protocol: (§3) Animals: All animal studies were performed using male ICR mice (25 ± 2 gr). The Technion Animal Care and Use committee approved all procedures, care, and handling of animals. Ethics approval codes: IL0800519, IL0640421, IL0550618, IL1811217.
(§4) For efficacy assessments, three infection models were used including one with topical treatment and two with systemic treatment. • Excisional skin wound infection model: mice were anesthetized by intraperitoneal administration of a mixture of ketamine 100 mg/kg and xylazine 5 mg/kg in PBS and their backs shaved with electric clippers. The following day mice were similarly anesthetized and were administrated (S.C) 0.05 mg/kg buprenorphine (for pain relief). A 5 mm diameter piece of skin was removed from the middle of the shaved back, with sterile biopsy punch resulting in a full-thickness injury. A total of 20 µL of a mid-logarithmic culture, containing 5 × 10^6 CFU P. aeruginosa 27853 were applied on the wound. Then, 15 min after inoculation, about 50 µL of hypromellose gel (prepared as described) containing OAC, antibiotic, or their combination were applied on the skin and covered with a piece of medical tape. As a control, the vehicle (drug-free gel) was similarly applied on the skin. After a treatment period of 4 h, about 8 mm diameter of skin surrounding the infected area was removed, suspended in PBS, homogenized, serially diluted 10-fold, and plated for CFU enumeration. The number of viable bacteria was determined after overnight incubation at 37 °C. The lower limit of detection was 50 CFU/wound. • Thigh infection model (TI): mice were inoculated intramuscularly with 1 × 10^6 CFU/mouse of mid-logarithmic E. coli 25922 and treated subcutaneously 1 and 3 h after inoculation. Mice were sacrificed 24 h after infection, their thighs excised, homogenized, serially diluted 10-fold, and plated for CFU enumeration. The number of viable bacteria was determined after overnight incubation at 37 °C. […] The number of viable bacteria was determined after overnight incubation at 37 °C. […]

Maximum tolerated dose = assay type: in vivo, mouse; conditions: single-dose subcutaneous, uninfected ICR mice, three mice per dose, monitored 7 days
Protocol: as §3
The maximum tolerated dose (MTD) was determined after a single-dose subcutaneous (S.C) administration of C14(ω5)OOc10O using three mice per dose. Animals were monitored for adverse effects for 7 days after injection.

E. coli UPEC CFT073 = assay: Urinary tract infection model; assay type: in vivo, mouse
Protocol: as §3, §4

CCCCC=CCCCCCCCC(=O)N[C@@H](CCCN)C(=O)N[C@@H](CCCN)C(=O)NCCCCCCCCCC(=O)N[C@@H](CCCN)C(N)=O [C14(ω5)OOc10O]
Sensitization factor (rifampin MIC alone)/(rifampin MIC in combination) (Klebsiella pneumoniae): 64,000 | Sensitization factor (rifampin MIC alone)/(rifampin MIC in combination) [1]: 4000 | Sensitization factor (rifampin MIC alone)/(rifampin MIC in combination) [2]: 32,000 | Sensitization factor (rifampin MIC alone)/(rifampin MIC in combination) (Escherichia coli 25922): 32,000 | Reduction of CFU count (P. aeruginosa 27853; hypromellose gel 0.2% (w/v)): 0.5 log10 units | Reduction of CFU count (P. aeruginosa 27853; hypromellose gel 1% (w/v)): 1.9 log10 units | Maximal tolerated dose (MTD) (Maximum tolerated dose): higher than 40 mg/kg | Effect on bladder CFU counts (E. coli UPEC CFT073; 12.5 mg/kg S.C at 1 and 6 h post-infection, CFU at 24 h): not those of the bladder | Reduction of kidneys' CFU counts (E. coli UPEC CFT073; 12.5 mg/kg S.C at 1 and 6 h post-infection, CFU at 24 h, 10 mice per group, dead control mice not included): > 2 orders of magnitude | Gap of kidneys' CFU counts with the treated group (E. coli UPEC CFT073; as above, if the two dead PBS-treated control mice were taken into consideration): four
